Legend:
Type in all cases: in vivo
[1] = tested on: Zymoseptoria tritici; test: Test B: wheat leaf blotch control on wheat seedlings; details: 250 ppm (incl. values marked * = tested at 250 ppm), sprayed to run-off on wheat seedlings, inoculated the following day; 100 = 100% disease control, 0 = no control
Text: General protocol for preparing test suspensions for Tests A-C: the test compounds were first dissolved in acetone in an amount equal to 3% of the final volume and then suspended at the desired concentration (in ppm) in acetone and purified water (50/50 mix by volume) containing 250 ppm of the surfactant PEG400 (polyhydric alcohol esters). The resulting test suspensions were then used in Tests A-C. The test solution was sprayed to the point of run-off on wheat seedlings. The following day the seedlings were inoculated with a spore suspension of Zymoseptoria tritici (the causal agent of wheat leaf blotch) and incubated in a saturated atmosphere at 24° C. for 48 h, and then moved to a growth chamber at 20° C. for 17 days, after which time disease ratings were made. Results for Tests A-C are given in Table A. In the Table, a rating of 100 indicates 100% disease control and a rating of 0 indicates no disease control (relative to the controls). A dash (-) indicates the compound was not tested.

[2] = tested on: Phakopsora pachyrhizi; test: Test A: Asian soybean rust control on soybean seedlings; details: sprayed to run-off on soybean seedlings, inoculated the following day, 100 = 100% disease control, 0 = no control; for pest or weed control at 250 ppm: Phakopsora pachyrhizi, 216 h, read-out: Test A disease control rating
Procedure, shortened: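 Compounds in acetone/water (50/50) with 250 ppm PEG400 were sprayed to run-off on soybean seedlings, which were inoculated with P. pachyrhizi spores the next day. Plants were held in saturated atmosphere at 22° C for 24 h, then 8 days at 22° C, before visual rating (0–100% disease control vs controls).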

[3] = tested on: Puccinia recondita f. sp. tritici; test: Test C: wheat leaf rust control on wheat seedlings; details: sprayed to run-off on wheat seedlings, inoculated the following day, 100 = 100% disease control, 0 = no control; for pest or weed control at 250 ppm: Puccinia recondita, 168 h, read-out: Test C disease control rating
Procedure, shortened: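 Wheat seedlings were sprayed to run-off with compound suspension (ppm, acetone/water with 250 ppm PEG400), then inoculated with Puccinia recondita f. sp. tritici spores the next day. Plants were held 24 h in saturated atmosphere at 20 °C, then 6 days in a 20 °C growth chamber. Disease control is rated 0-100% relative to untreated controls.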

| SMILES | Test B disease control rating [1] | Test A disease control rating ([2]; 250 ppm) | Test C disease control rating ([3]; 250 ppm) | also measured |
| --- | --- | --- | --- | --- |
| C#CCNC(=O)OC(c1ccc(-c2noc(C(F)(F)F)n2)cc1)c1cccc(Cl)c1 (stereo not drawn) [Compound 104] | 84% | 100% | 80% |  |
| COC(=O)NN=Cc1ccc(-c2noc(C(F)(F)F)n2)cc1 [Compound 105, methyl 2-[[4-[5-(trifluoromethyl)-1,2,4-oxadiazol-3-yl]phenyl]methylene]-hydrazinecarboxylate] | 99% |  |  | pest or weed control at 250 ppm ([2]; 250 ppm): 100%; pest or weed control at 250 ppm ([3]; 250 ppm): 100% |
| NC(=O)OC(c1ccc(F)cc1)c1ccc(-c2noc(C(F)(F)F)n2)cc1 (stereo not drawn) [Compound 112] | 85% | 100% | 100% |  |
| CNC(=O)OC(c1ccc(F)cc1)c1ccc(-c2noc(C(F)(F)F)n2)cc1 (stereo not drawn) [Compound 113] | 82% | 100% | 100% |  |
| CCNC(=O)OC(c1ccc(F)cc1)c1ccc(-c2noc(C(F)(F)F)n2)cc1 (stereo not drawn) [Compound 114] | 9% | 100% | 100% |  |
| O=C(OCc1cccc(-c2noc(C(F)(F)F)n2)c1)n1ccnc1 [Compound 123] | 0% |  |  | pest or weed control at 250 ppm ([2]; 250 ppm): 100%; pest or weed control at 250 ppm ([3]; 250 ppm): 96% |
| CCOC(=O)NN=Cc1ccc(-c2noc(C(F)(F)F)n2)s1 [Compound 124] | 73* % |  |  | Test A disease control rating ([2]; 50 ppm): 100%; Test C disease control rating ([3]; 50 ppm): 100% |
| O=C(OC(c1ccc(-c2noc(C(F)(F)F)n2)cc1)c1cccc(F)c1)n1ccnc1 (stereo not drawn) [Compound 125] | 97% | 100% | 100% |  |
| O=C(OC(c1ccc(-c2noc(C(F)(F)F)n2)cc1)c1cccc(Cl)c1)n1ccnc1 (stereo not drawn) [Compound 126] | 88* % |  |  | Test A disease control rating ([2]; 10 ppm): 99%; Test C disease control rating ([3]; 10 ppm): 0% |
| O=C(OC(c1ccc(F)cc1)c1ccc(-c2noc(C(F)(F)F)n2)cc1)n1ccnc1 (stereo not drawn) [Compound 127] | 99% | 100% | 100% |  |
| Cc1ccccc1C(OC(N)=O)c1ccc(-c2noc(C(F)(F)F)n2)cc1 (stereo not drawn) [Compound 128] | 88% | 100% | 100% |  |
| CNC(=O)OC(c1ccc(-c2noc(C(F)(F)F)n2)cc1)c1ccccc1C (stereo not drawn) [Compound 129] | 74% | 100% | 100% |  |
| NC(=O)OC(c1ccc(-c2noc(C(F)(F)F)n2)cc1)c1cccc(F)c1 (stereo not drawn) [Compound 131] | 96% | 100% | 100% |  |
| CNC(=O)OC(c1ccc(-c2noc(C(F)(F)F)n2)cc1)c1cccc(F)c1 (stereo not drawn) [Compound 132] | 95% | 100% | 100% |  |
| CCNC(=O)OC(c1ccc(-c2noc(C(F)(F)F)n2)cc1)c1cccc(F)c1 (stereo not drawn) [Compound 133] | 99% | 100% | 100% |  |
| CN(C)C(=O)OC(c1ccc(-c2noc(C(F)(F)F)n2)cc1)c1cccc(F)c1 (stereo not drawn) [Compound 134] | 50% | 100% | 89% |  |
| C#CCNC(=O)OC(c1ccc(-c2noc(C(F)(F)F)n2)cc1)c1cccc(F)c1 (stereo not drawn) [Compound 135] | 88% | 100% | 100% |  |
| CNC(=O)OC(c1ccccc1)c1ccc(-c2noc(C(F)(F)F)n2)cc1 (stereo not drawn) [Compound 137] | 70% | 100% | 100% |  |
| C=CCNC(=O)OC(c1ccccc1)c1ccc(-c2noc(C(F)(F)F)n2)cc1 (stereo not drawn) [Compound 138] | 99% | 100% | 100% |  |
| CCCNC(=O)OC(c1ccccc1)c1ccc(-c2noc(C(F)(F)F)n2)cc1 (stereo not drawn) [Compound 139] | 56% | 100% | 100% |  |
| CC(C)CNC(=O)OC(c1ccccc1)c1ccc(-c2noc(C(F)(F)F)n2)cc1 (stereo not drawn) [Compound 140] | 34% | 100% | 86% |  |
| COC(=O)NN=Cc1ccc(-c2noc(C(F)(F)F)n2)s1 [Compound 141] | 93* % |  |  | Test A disease control rating ([2]; 50 ppm): 100%; Test C disease control rating ([3]; 50 ppm): 100% |
| Cc1ccc(C(OC(N)=O)c2ccc(-c3noc(C(F)(F)F)n3)cc2)cc1 (stereo not drawn) [Compound 143] | 69% | 100% | 100% |  |
| CNC(=O)OC(c1ccc(C)cc1)c1ccc(-c2noc(C(F)(F)F)n2)cc1 (stereo not drawn) [Compound 144] | 0% | 100% | 100% |  |
| CCNC(=O)OC(c1ccc(C)cc1)c1ccc(-c2noc(C(F)(F)F)n2)cc1 (stereo not drawn) [Compound 145] | 28% | 100% | 98% |  |
| C=C(C)CNC(=O)OC(c1ccc(C)cc1)c1ccc(-c2noc(C(F)(F)F)n2)cc1 (stereo not drawn) [Compound 146] | 21% | 100% | 97% |  |

Reference: US11540518B2, “Fungicidal oxadiazoles” (FMC Corporation, priority 2017, dated 2023)
